Measured values from ChEMBL document CHEMBL5244281, “Tackling multidrug-resistant Staphylococcus aureus by natural products and their analogues acting as NorA efflux pump inhibitors” (Bioorg Med Chem, 2023).
In brackets after ≈: the same amount, converted by molar mass.

Key:
Staphylococcus aureus [1] = experiment: Antibacterial activity against methicillin-resistant Staphylococcus aureus 1199B overexpressing NorA gene assessed as bacterial growth inhibition; type: functional
Staphylococcus aureus [2] = experiment: Synergistic antibacterial activity against Staphylococcus aureus 1199B overexpressing NorA gene assessed as fractional inhibitory concentration index at 2 ug/ml in presence of norfloxacin; type: functional; details: dose 2 µg/ml
Staphylococcus aureus [3] = experiment: Antibacterial activity against norfloxacin resistant Staphylococcus aureus IS-58 overexpressing TetK efflux pump gene assessed as bacterial growth inhibition incubated for 24 hrs by CLSI protocol based microdilution method; type: functional
Staphylococcus aureus [4] = experiment: Antibacterial activity against norfloxacin resistant Staphylococcus aureus RN4220 overexpressing […] efflux pump gene assessed as bacterial growth inhibition incubated for 24 hrs by CLSI protocol based microdilution method; type: functional
Staphylococcus aureus [5] = experiment: Antibacterial activity against norfloxacin resistant Staphylococcus aureus 1199B overexpressing NorA efflux pump gene assessed as bacterial growth inhibition incubated for 24 hrs by CLSI protocol based microdilution method; type: functional
Staphylococcus aureus [6] = experiment: Antibacterial activity against Staphylococcus aureus 1199B overexpressing NorA efflux protein assessed as bacterial growth inhibition incubated for 24 hrs by microdilution method; type: functional
Staphylococcus aureus [7] = experiment: Antibacterial activity against wild type Staphylococcus aureus ATCC 25923 assessed as bacterial growth inhibition incubated for 24 hrs by microdilution method; type: functional
Escherichia coli [8] = experiment: Antibacterial activity against Escherichia coli ATCC 25922 assessed as bacterial growth inhibition incubated for 24 hrs by microdilution method; type: functional
Candida albicans = experiment: Antimicrobial activity against Candida albicans ATCC 10231 assessed as […] growth inhibition incubated for 24 hrs by microdilution method; type: functional
[9] = molecular target: T1, Quinolone resistance protein NorA (Staphylococcus aureus) (UniProt P0A0J7); details: 1199B
T1 sequence (whole entry): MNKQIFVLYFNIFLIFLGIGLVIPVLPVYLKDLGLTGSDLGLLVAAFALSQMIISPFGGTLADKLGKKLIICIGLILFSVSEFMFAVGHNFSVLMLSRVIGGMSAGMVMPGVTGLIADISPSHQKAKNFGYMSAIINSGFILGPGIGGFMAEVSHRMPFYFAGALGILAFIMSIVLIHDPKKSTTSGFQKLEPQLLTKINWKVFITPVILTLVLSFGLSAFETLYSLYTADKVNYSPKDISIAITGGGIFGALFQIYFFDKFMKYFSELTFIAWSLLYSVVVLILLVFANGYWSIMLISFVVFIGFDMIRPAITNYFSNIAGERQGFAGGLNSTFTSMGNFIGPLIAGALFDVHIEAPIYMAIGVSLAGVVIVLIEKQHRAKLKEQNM

Staphylococcus aureus [10] = experiment: Antibacterial activity against norfloxacin resistant Staphylococcus aureus 1199 assessed as bacterial growth inhibition; type: functional
Staphylococcus aureus [11] = experiment: Antibacterial activity against norfloxacin resistant Staphylococcus aureus 1199B overexpressing NorA assessed as bacterial growth inhibition; type: functional
[12] = molecular target: T1, Quinolone resistance protein NorA (Staphylococcus aureus); experiment: Potentiation of ciprofloxacin-mediated inhibition of NorA efflux pump in Staphylococcus aureus 1199B overexpressing NorA efflux pump assessed as reduction in ciprofloxacin MIC (Rvb= […] ug/ml)
Escherichia coli [13] = experiment: Potentiation of gentamicin-induced antibacterial activity against Escherichia coli 06 assessed as gentamicin MIC at 1/8 times of MIC (Rvb= 322 ug/ml); type: functional
[14] = molecular target: T1, Quinolone resistance protein NorA (Staphylococcus aureus); experiment: Potentiation of EtBr-induced inhibition of NorA efflux pump in Staphylococcus aureus 1199B overexpressing NorA efflux pump assessed as reduction in EtBr MIC at 1/8 times of MIC by resazurin based assay (Rvb= 512 ug/ml)
Staphylococcus aureus [15] = experiment: Antimicrobial activity against Staphylococcus aureus ATCC 29213 assessed as bacterial growth inhibition incubated for 18 hrs by broth microdilution assay; type: functional
Staphylococcus aureus [16] = experiment: Antimicrobial activity against Staphylococcus aureus ATCC 43300 assessed as bacterial growth inhibition incubated for 18 hrs by broth microdilution assay; type: functional
Staphylococcus aureus [17] = experiment: Antimicrobial activity against Staphylococcus aureus BAA-44 assessed as bacterial growth inhibition incubated for 18 hrs by broth microdilution assay; type: functional
Escherichia coli [18] = experiment: Antimicrobial activity against Escherichia coli ATCC 25922 assessed as bacterial growth inhibition incubated for 18 hrs by broth microdilution assay; type: functional
Enterococcus faecalis = experiment: Antimicrobial activity against Enterococcus faecalis ATCC 29212 assessed as bacterial growth inhibition incubated for 18 hrs by broth microdilution assay; type: functional
Enterococcus faecium = experiment: Antimicrobial activity against Enterococcus faecium ATCC 700221 assessed as bacterial growth inhibition incubated for 18 hrs by broth microdilution assay; type: functional
Klebsiella pneumoniae = experiment: Antimicrobial activity against Klebsiella pneumoniae 1213-2 assessed as bacterial growth inhibition incubated for 18 hrs by broth microdilution assay; type: functional
Staphylococcus aureus [19] = experiment: Antibacterial activity against Staphylococcus aureus 1199B overexpressing NorA efflux pump assessed as bacterial growth inhibition incubated for 18 hrs by broth dilution method; type: functional
Staphylococcus aureus [20] = experiment: Antibacterial activity against Staphylococcus aureus K1758 with NorA knockout assessed as bacterial growth inhibition incubated for 18 hrs by broth dilution method; type: functional
[21] = molecular target: T1, Quinolone resistance protein NorA (Staphylococcus aureus); experiment: Inhibition of NorA efflux pump in Staphylococcus aureus 1199B overexpressing NorA efflux pump assessed as decrease in ciprofloxacin MIC at 1/4 times MIC and measured for 45 mins in presence of ciprofloxacin by fluorimetric analysis (Rvb=8 ug/ml)
[22] = molecular target: T1, Quinolone resistance protein NorA (Staphylococcus aureus); experiment: Inhibition of NorA efflux pump in Staphylococcus aureus 1199B overexpressing NorA efflux pump assessed as decrease in norfloxacin MIC at 1/4 times MIC and measured for 45 mins in presence of norfloxacin by fluorimetric analysis (Rvb=32 ug/ml)

In the case of `COc1cc2oc(-c3ccc(O)cc3)c(OC)c(=O)c2c(O)c1OC` [PENDULETIN], the MIC (Staphylococcus aureus [1]) is reported as 256 µg/mL (≈ 743 µM) and the “fractional inhibitory concentration index (FICI)” value (Staphylococcus aureus [2]) is reported as 0.079.

Work on `O=C(O)c1cc(O)c(O)c(O)c1` [GALLIC ACID] yielded an MIC (Staphylococcus aureus [3]) of 1020 µg/mL (≈ 6020 µM), an MIC (Staphylococcus aureus [4]) of 1020 µg/mL (≈ 6020 µM) and an MIC (Staphylococcus aureus [5]) of 1020 µg/mL (≈ 6020 µM).

In the case of `COc1ccc(/C=C/[C@@H]2c3c(cc(O)cc3OC)C[C@H]3c4ccc(O)cc4O[C@H](c4ccccc4)[C@@H]23)cc1`, the MIC (Staphylococcus aureus [6]) is reported as over 1020 µg/mL, the MIC (Staphylococcus aureus [7]) is reported as over 1020 µg/mL and the MIC (Escherichia coli [8]) is reported as over 1020 µg/mL. It also gave an MIC (Candida albicans) of 161 µg/mL (≈ 318 µM) and an MIC [9] of 16 µg/mL (≈ 31.6 µM).

For `CC1=CCC(C(C)C)CC1` (stereo not drawn), the MIC (Staphylococcus aureus [10]) was over 1020 µg/mL and the MIC (Staphylococcus aureus [11]) was over 1020 µg/mL.

`CCOC(=O)/C=C/C(C)=C/c1ccc2c(c1)CCC(C)(C)O2` showed an MIC [12] of 3.12 µg/mL.

Work on `C[C@H]1[C@H](C)CC[C@]2(C)CC[C@]3(C)C(=CC[C@@H]4[C@@]5(C)CC[C@H](O)C(C)(C)[C@@H]5CC[C@]43C)[C@H]12` yielded an MIC (Escherichia coli [13]) of 203 µg/mL and an MIC [14] of 406 µg/mL.

With `CN(CC[C@H](N)CC(=O)N[C@H]1C=C[C@H](n2ccc(N)nc2=O)O[C@@H]1C(=O)O)C(=N)N` [BLASTICIDIN_S] the MIC (Staphylococcus aureus [15]) was 50 µg/mL (≈ 118 µM), the MIC (Staphylococcus aureus [16]) was 100 µg/mL (≈ 237 µM) and the MIC (Staphylococcus aureus [17]) was 25 µg/mL (≈ 59.2 µM). The MIC (Escherichia coli [18]) was 100 µg/mL (≈ 237 µM), the MIC (Enterococcus faecalis) was 25 µg/mL (≈ 59.2 µM) and the MIC (Enterococcus faecium) was 200 µg/mL (≈ 473 µM). For the same compound, the MIC (Klebsiella pneumoniae) was 50 µg/mL (≈ 118 µM).

`O=C(/C=C/c1ccco1)N/N=C/c1ccc(Br)o1` showed an MIC (Staphylococcus aureus [19]) of 64 µg/mL (≈ 207 µM), an MIC (Staphylococcus aureus [20]) of 64 µg/mL (≈ 207 µM) and an MIC [21] of 0.5 µg/mL. The MIC [22] was 1 µg/mL.

Work on `COc1cc(O)cc2c1[C@@H](/C=C/c1ccc(O)cc1)[C@@H]1[C@@H](c3ccccc3)Oc3cc(O)ccc3[C@@H]1O2` yielded an MIC (Staphylococcus aureus [6]) of over 1020 µg/mL, an MIC (Staphylococcus aureus [7]) of over 1020 µg/mL and an MIC (Escherichia coli [8]) of over 1020 µg/mL. It also gave an MIC (Candida albicans) of over 1020 µg/mL.

Work on `O=C(O)/C=C/c1ccc(O)c(O)c1` [CAFFEIC ACID] yielded an MIC (Staphylococcus aureus [3]) of 1020 µg/mL (≈ 5680 µM), an MIC (Staphylococcus aureus [4]) of 1020 µg/mL (≈ 5680 µM) and an MIC (Staphylococcus aureus [5]) of 1020 µg/mL (≈ 5680 µM).
